Laboratory results published in patent US20210388022A1, “SUBSTITUTED GUANIDINO AND AMIDINO REAGENTS AND THE USE THEREOF FOR PROTEIN DENATURATION” (Waters Technologies Corporation, priority 2020, published 2021).
Where a name gives a salt, the structure may show the parent alone.

What was measured:
[1] = test system: Polyclonal rabbit IgG (rIgG); assay: Native fluorescence assay of rabbit IgG denaturation (ex 280 nm, emission ratio 376/360 nm); format: biochemical; conditions: for denaturing power (in words): 5 mM concentration and lower temperatures
Method: To determine the effectiveness of the guanidine and amidine reagents from the table of FIG. 8, a native fluorescence assay was established using rabbit IgG. Upon excitation at 280 nm, emission was measured ratiometrically at two wavelengths 376 and 360 nm.
Fluorescence spectra were acquired at an excitation wavelength of 280 nm and emission intensity is reported as a ratio of 376 nm intensity divided by 360 nm intensity. An increase in 1376/1360 denotes a change in the microenvironment of tryptophan residues—specifically, their change from a hydrophobically surrounded native state to a solvent exposed denatured state.
The IgG sample was subjected to concentrations of 0.5, 5, and 50 mM and temperatures of either ambient, 50° C., 70° C., or 90° C. […] Fluorescence was performed with an excitation wavelength of 280 nm.
Polyclonal rabbit IgG (rIgG) was used as a test protein to evaluate the denaturation power of various reagents. The rIgG protein was dissolved and diluted to a concentration of 0.25 mg/mL with water, while also being subjected to the chemical compound of interest and an incubation at either room temperature, 50° C., 70° C., or 90° C. To generate a positive control for complete denaturation, the rIgG sample was subjected to room temperature incubations with guanidine hydrochloride at 0 and up to 8M concentrations. Native fluorescence of the resulting sample was thereafter measured using an excitation wavelength of 280 nm. Emission intensities at 376 and 360 nm were subsequently detected and reported as a ratio as a sensitive measure of rIgG denaturation and a change in the local environment of tryptophan residues.
Fluorescence intensity ratios obtained after incubation with reagent #1, reagent #2, and reagent #3 and either ambient, 50° C., 70° C., or 90° C. temperatures are provided in FIG. 3. Likewise, fluorescence intensity ratios obtained after incubation with reagent #4, reagent #5, and reagent #6 and either ambient, 50° C., 70° C., or 90° C. temperatures are provided in FIG. 4. In all experiments, the substituted guanidine and amidines were titrated to a neutral pH and their protonated ionization states prior to being incubated with protein sample.

[2] = molecular target: T1, Orencia® (abatacept), a glycosylated fusion protein (Homo sapiens, UniProt P16410, C103S); assay: Denaturation then PNGase F deglycosylation of abatacept, intact protein RPLC-MS; format: biochemical; conditions: 5 mM reagent, short 90° C. incubation, no desalting, PNGase F at 50° C.
T1 construct: modified human IgG1 Fc (hinge-CH2-CH3) fusion partner; purchased Bristol-Myers Squibb
Method: An Orencia® stock solution (20 mg/mL) was diluted 10 times with water to a concentration of 2 mg/mL, followed by the addition of 10 μL diluted sample into three 1 mL polypropylene tubes. Four (4) μL of 50 mM guanidino reagents, tetramethylguanidine (reagent #1), t-butyl tetramethylguanidine (reagent #2), and trazabicyclodecene (reagent #3), were added into each tube, separately. Finally, 8 μL of 50 mM HEPES, pH 7.9 buffer was transferred into each tube along with 16.4 μL of water.
The contents of each well were subsequently mixed by aspiration. Each sample was then incubated at 90° C., 3 minutes for denaturation and then removed from the heating block to cool at room temperature for 3 minutes. Each denatured glycoprotein sample was treated with 1.6 μL of GlycoWorks Rapid PNGase F at 50° C. for 5 minutes. Aliquots containing 10 μL of each deglycosylated sample were submitted for intact protein analysis, while the remaining 30 μL samples were subjected to RapiFluor-MS™ labeling and released glycan analysis (see details in Example 3).
Additionally, two controls were applied. For a positive control (FIG. 5D), 5 μL of Orencia® stock solution was mixed with 45 μL of 8M guanidine hydrochloride at room temperature, followed by desalting with a Thermo Zeba spin column. The resulting, 10 μL desalted sample was mixed with 8 μL of 50 mM HEPES, pH 7.9, 20.4 μL of water and 1.6 μL of GlycoWorks Rapid PNGase F before being incubated at 50° C. for 5 min to perform deglycosylation. Ten (10) μL of this deglycosylated protein, as well as 10 μL of 2 mg/mL Orencia® solution without denaturation, were tested as positive and negative controls of intact protein analysis. LCMS settings and parameters used for intact protein analysis are listed below in Table 1.

Orencia® (abatacept) = molecular target: T2, Orencia® (abatacept) (Homo sapiens, UniProt P16410, C103S); assay: N-glycan release and RapiFluor-MS labeling after denaturation, LC-FLR-MS profile; conditions: 5 mM tetramethylguanidine denatured Orencia®, no desalting
T2 construct: modified human IgG1 Fc (hinge-CH2-CH3) fusion partner; purchased Bristol-Myers Squibb
Method: In the example of FIG. 6, abatacept was denatured with 5 mM tetramethylguanidine at a 90° C. and incubated at 50° C. with PNGase F. The resulting N-glycosylamines were there derivatized with RapiFluor-MS™ and cleaned up with solid phase extraction using a GlycoWorks RapiFluor-MS™ N-glycan kit (according to manufacturer recommendations; Waters Technologies Corporation, Milford, Mass.). RapiFluor-MS™ labeled N-glycans from this tetramethylguanidinium denatured sample were thereafter profiled by […].
Thirty (30) μL of deglycosylated protein was labeled with 12 μL of RapiFluor-MS™ solution (68.7 mg/mL in DMF) for 5 minutes at room temperature, followed by dilution with 358 μL of acetonitrile for SPE clean-up. The total of 400 μL mixed solution was transferred to a pre-conditioned HILIC μElution SPE plate staged for operation on a positive pressure manifold with 3 psi pressurization. Each sample was loaded onto the plate and then twice washed with 600 μL of 1:9:90 (v/v/v) formic acid/water/acetonitrile. Finally, released glycans were eluted from individual wells with three, 30 μL of 200 mM ammonium acetate in 5% acetonitrile. Eluate was collected and transferred in LC vials for analysis. LC-FLR-MS settings and parameters used in these experiments are listed below in Table 2.

T1 sequence (P16410 with tags, fused parts or gaps limits assumed, stated change not applied): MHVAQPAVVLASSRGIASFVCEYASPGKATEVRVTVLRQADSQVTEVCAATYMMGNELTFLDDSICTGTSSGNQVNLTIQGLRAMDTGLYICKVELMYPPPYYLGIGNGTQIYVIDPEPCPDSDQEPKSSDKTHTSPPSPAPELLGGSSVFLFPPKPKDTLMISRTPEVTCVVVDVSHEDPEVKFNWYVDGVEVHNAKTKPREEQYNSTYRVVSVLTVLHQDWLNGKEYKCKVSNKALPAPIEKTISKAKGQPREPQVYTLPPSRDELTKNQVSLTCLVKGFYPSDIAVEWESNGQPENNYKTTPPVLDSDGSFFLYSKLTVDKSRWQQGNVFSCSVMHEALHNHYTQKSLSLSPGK
T2 sequence (P16410 with tags, fused parts or gaps limits assumed, stated change not applied): as above

interference in LC-FLR-MS data of RapiFluor-MS labeled N-glycans (Orencia® (abatacept))	Compound	fluorescence intensity ratio of rIgG ([1]; 1% (w/v) RapiGest SF [~24 mM], suggests only partial denaturation)	extent of PNGase F deglycosylation of abatacept after denaturation [2]	denaturing power (in words) [1]	fluorescence intensity ratio of rIgG ([1]; 8M guanidine, room temperature, native state rIgG approximately 1.3)
	CCCCCCCCCCCC1(C)OCC(COCCCS(=O)(=O)[O-])O1.[Na+] (stereo not drawn) [RapiGest SF]	approximately 1.4			
no significant interferences	CN(C)C(=N)N(C)C [Reagent 1, 1,1,3,3-tetramethylguanidine]		as extensively deglycosylated as the guanidinium hydrochloride denatured controls	significantly reduced	
	CN(C)C(=NC(C)(C)C)N(C)C [Reagent 2, 2-tert-butyl-1,1,3,3-tetramethylguanidine]		as extensively deglycosylated as the guanidinium hydrochloride denatured controls	significantly reduced	
	C1CN=C2NCCCN2C1 [Reagent 3, 1,5,7-triazabicyclo[4.4.0]dec-5-ene]		as extensively deglycosylated as the guanidinium hydrochloride denatured controls	significantly reduced	
	N=C(N)N [guanidine, guanidine hydrochloride, reference compound]				approximately 1.6
